Laboratory results from ChEMBL document CHEMBL5209590, “Membrane potential based transport assay for SLC7A3 using HEK293 JumpIn SLC7A3 OE cells” (2022).

Each molecule was assayed against Cationic amino acid transporter 3 (Homo sapiens, UniProt Q8WY07) (assay: Substrate uptake by the Cationic Amino Acid Transporter (CAT-3, SLC7A3) as assessed by the fluorescent FLIPR membrane potential dye in HEK-293 JumpIN-SLC7A3 cells (PubChem AID: 1745863)).
Assay type: functional, cell-based, HEK293

Cationic amino acid transporter 3, sequence (Q8WY07 whole entry): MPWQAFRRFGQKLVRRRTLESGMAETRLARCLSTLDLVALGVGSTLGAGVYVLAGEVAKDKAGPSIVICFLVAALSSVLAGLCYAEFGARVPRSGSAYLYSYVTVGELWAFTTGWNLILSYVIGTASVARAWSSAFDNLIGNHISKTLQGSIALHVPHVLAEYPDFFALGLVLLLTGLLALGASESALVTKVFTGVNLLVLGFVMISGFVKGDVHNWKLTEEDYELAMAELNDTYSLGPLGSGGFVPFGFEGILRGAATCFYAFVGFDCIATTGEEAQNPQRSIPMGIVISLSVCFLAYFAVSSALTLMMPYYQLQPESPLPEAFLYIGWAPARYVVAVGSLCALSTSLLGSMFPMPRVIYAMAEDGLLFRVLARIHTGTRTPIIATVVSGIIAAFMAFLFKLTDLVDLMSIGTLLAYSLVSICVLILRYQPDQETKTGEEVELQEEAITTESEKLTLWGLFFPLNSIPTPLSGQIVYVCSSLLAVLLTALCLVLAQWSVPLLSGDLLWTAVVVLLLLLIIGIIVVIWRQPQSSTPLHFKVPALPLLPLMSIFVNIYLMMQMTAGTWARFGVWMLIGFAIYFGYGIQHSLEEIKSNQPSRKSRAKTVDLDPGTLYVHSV

Row | Structure (SMILES) | EC50
1 | N=C(N)NCCC[C@H](N)C(=O)O [ARGININE] | 283 µM
2 | NCCCC[C@H](N)C(=O)O [LYSINE] | 158 µM
3 | NCCC[C@H](N)C(=O)O | 237 µM
